Data as given in EP1025114B1, “3'-N-MODIFIED 6-O-SUBSTITUTED ERYTHROMYCIN KETOLIDE DERIVATIVES HAVING ANTIBACTERIAL ACTIVITY” (priority 1997, dated 1999).

What was measured:
Experiment in all cases: In vitro antibacterial activity, agar dilution MIC
Assay type in all cases: cell-based
Candida albicans CCH 442 = Candida albicans CCH 442 (organism code TT); BHI agar, 35-37 °C, 20 to 24 hours; unit assumed
Description: (§1) Representative compounds of the present invention were assayed in vitro for antibacterial activity as follows: Twelve petri dishes containing successive aqueous dilutions of the test compound mixed with 10 mL of sterilized Brain Heart infusion (BHI) agar (Difco 0418-01-5) were prepared. Each plate was inoculated with 1:100 (or 1:10 for slow-growing strains, such as Micrococcus and Streptococcus) dilutions of up to 32 different microorganisms, using a Steers replicator block. […] In addition, a control plate, using BHI agar containing no test compound, was prepared and incubated at the beginning and end of each test.
(§2) An additional plate containing a compound having known susceptibility patterns for the organisms being tested and belonging to the same antibiotic class as the test compound was also prepared and incubated as a further control, as well as to provide test-to-test comparability.
(§3) After incubation, each plate was visually inspected. The minimum inhibitory concentration (MIC) was defined as the lowest concentration of drug yielding no growth, a slight haze, or sparsely isolated colonies on the inoculum spot as compared to the growth control.

[1] = test system: Enterococcus faecium ATCC 8043; conditions: Enterococcus faecium ATCC 8043 (organism code II); BHI agar, 35-37 °C, 20 to 24 hours; unit assumed
Description: as §1, §2, §3

Escherichia coli DC-2 = Escherichia coli DC-2 (organism code SS); BHI agar, 35-37 °C, 20 to 24 hours; unit assumed
Description: as §1, §2, §3

Escherichia coli JUHL = Escherichia coli JUHL (organism code QQ); BHI agar, 35-37 °C, 20 to 24 hours; unit assumed
Description: as §1, §2, §3

Escherichia coli SS = Escherichia coli SS (organism code RR); BHI agar, 35-37 °C, 20 to 24 hours; unit assumed
Description: as §1, §2, §3

[2] = test system: Haemophilis Influenzae DILL AMP R; conditions: Haemophilis Influenzae DILL AMP R (organism code WW); BHI agar, 35-37 °C, 20 to 24 hours; unit assumed
Description: as §1, §2, §3

[3] = test system: Micrococcus luteus ATCC 4698; conditions: Micrococcus luteus ATCC 4698 (organism code PP); BHI agar, 35-37 °C, 20 to 24 hours; unit assumed
Description: as §1, §2, §3

[4] = test system: Micrococcus luteus ATCC 9341; conditions: Micrococcus luteus ATCC 9341 (organism code OO); BHI agar, 35-37 °C, 20 to 24 hours; unit assumed
Description: as §1, §2, §3

[5] = test system: Mycobacterium smegmatis ATCC 114; conditions: Mycobacterium smegmatis ATCC 114 (organism code UU); BHI agar, 35-37 °C, 20 to 24 hours; unit assumed
Description: as §1, §2, §3

[6] = test system: Nocardia Asteroides ATCC9970; conditions: Nocardia Asteroides ATCC9970 (organism code VV); BHI agar, 35-37 °C, 20 to 24 hours; unit assumed
Description: as §1, §2, §3

[7] = test system: Staphylococcus aureus 1775; conditions: Staphylococcus aureus 1775 (organism code GG); BHI agar, 35-37 °C, 20 to 24 hours; unit assumed
Description: as §1, §2, §3

[8] = test system: Staphylococcus aureus A-5278; conditions: Staphylococcus aureus A-5278 (organism code CC); BHI agar, 35-37 °C, 20 to 24 hours; unit assumed
Description: as §1, §2, §3

[9] = test system: Staphylococcus aureus A5177; conditions: Staphylococcus aureus A5177 (organism code BB); BHI agar, 35-37 °C, 20 to 24 hours; unit assumed
Description: as §1, §2, §3

[10] = test system: Staphylococcus aureus ATCC 6538P; conditions: Staphylococcus aureus ATCC 6538P (organism code AA); BHI agar, 35-37 °C, 20 to 24 hours; unit assumed
Description: as §1, §2, §3

[11] = test system: Staphylococcus aureus CMX 553; conditions: Staphylococcus aureus CMX 553 (organism code FF); BHI agar, 35-37 °C, 20 to 24 hours; unit assumed
Description: as §1, §2, §3

[12] = test system: Staphylococcus aureus CMX 642A; conditions: Staphylococcus aureus CMX 642A (organism code DD); BHI agar, 35-37 °C, 20 to 24 hours; unit assumed
Description: as §1, §2, §3

[13] = test system: Staphylococcus aureus NCTC10649M; conditions: Staphylococcus aureus NCTC10649M (organism code EE); BHI agar, 35-37 °C, 20 to 24 hours; unit assumed
Description: as §1, §2, §3

[14] = test system: Staphylococcus epidermidis 3519; conditions: Staphylococcus epidermidis 3519 (organism code HH); BHI agar, 35-37 °C, 20 to 24 hours; unit assumed
Description: as §1, §2, §3

[15] = test system: Streptococcus Pheumoniae 5649; conditions: Streptococcus Pheumoniae 5649 (organism code ZZA); BHI agar, 35-37 °C, 20 to 24 hours; unit assumed
Description: as §1, §2, §3

[16] = test system: Streptococcus Pheumoniae 5979; conditions: Streptococcus Pheumoniae 5979 (organism code ZZ); BHI agar, 35-37 °C, 20 to 24 hours; unit assumed
Description: as §1, §2, §3

[17] = test system: Streptococcus Pheumoniae ATCC6303; conditions: Streptococcus Pheumoniae ATCC6303 (organism code XX); BHI agar, 35-37 °C, 20 to 24 hours; unit assumed
Description: as §1, §2, §3

[18] = test system: Streptococcus Pheumoniae GYR 1171; conditions: Streptococcus Pheumoniae GYR 1171 (organism code YY); BHI agar, 35-37 °C, 20 to 24 hours; unit assumed
Description: as §1, §2, §3

[19] = test system: Streptococcus agalactiae CMX 508; conditions: Streptococcus agalactiae CMX 508 (organism code KK); BHI agar, 35-37 °C, 20 to 24 hours; unit assumed
Description: as §1, §2, §3

[20] = test system: Streptococcus bovis A-5169; conditions: Streptococcus bovis A-5169 (organism code JJ); BHI agar, 35-37 °C, 20 to 24 hours; unit assumed
Description: as §1, §2, §3

[21] = test system: Streptococcus pyogenes 930; conditions: Streptococcus pyogenes 930 (organism code MM); BHI agar, 35-37 °C, 20 to 24 hours; unit assumed
Description: as §1, §2, §3

[22] = test system: Streptococcus pyogenes EES61; conditions: Streptococcus pyogenes EES61 (organism code LL); BHI agar, 35-37 °C, 20 to 24 hours; unit assumed
Description: as §1, §2, §3

[23] = test system: Streptococcus pyogenes PIU 2548; conditions: Streptococcus pyogenes PIU 2548 (organism code NN); BHI agar, 35-37 °C, 20 to 24 hours; unit assumed
Description: as §1, §2, §3

Row | Structure (SMILES) | MIC (Candida albicans CCH 442) [µg/mL] | MIC [1] [µg/mL] | MIC (Escherichia coli DC-2) [µg/mL] | MIC (Escherichia coli JUHL) [µg/mL] | MIC (Escherichia coli SS) [µg/mL] | MIC [3] [µg/mL] | MIC [4] [µg/mL] | MIC [5] [µg/mL] | MIC [6] [µg/mL] | MIC [7] [µg/mL] | MIC [8] [µg/mL] | MIC [9] [µg/mL] | MIC [10] [µg/mL] | MIC [11] [µg/mL] | MIC [12] [µg/mL] | MIC [13] [µg/mL] | MIC [14] [µg/mL] | MIC [15] [µg/mL] | MIC [16] [µg/mL] | MIC [17] [µg/mL] | also measured
1 | CC[C@H]1OC(=O)[C@H](C)C(=O)[C@H](C)[C@@H](O[C@@H]2O[C@H](C)C[C@H](NC)[C@H]2OC(C)=O)[C@](C)(OCC=Cc2cnc3ccccc3c2)C[C@@H](C)C(=O)[C@H](C)[C@H]2NC(=O)O[C@@]21C [Example 2, Compound of formula (II), R is -CH2CH=CH-(3-quinolyl), R^p is acetyl, R^1 is H, R^2 is CH3, W is absent, R^w is H] | > 100 | 0.05 | > 100 | > 100 | 0.39 | 0.1 | 0.02 | 3.1 | 1.56 | > 100 | > 100 | 0.2 | 0.2 | 0.2 | 0.2 | 0.2 | 0.2 | 0.5 | 128 | 0.03 | MIC [2]: 16 µg/mL; MIC [18]: 0.03 µg/mL; MIC [19]: ≤ 0.005 µg/mL; MIC [20]: ≤ 0.005 µg/mL; MIC [21]: 25 µg/mL; MIC [22]: ≤ 0.005 µg/mL; MIC [23]: 0.39 µg/mL
2 | CC[C@H]1OC(=O)[C@H](C)C(=O)[C@H](C)[C@@H](O[C@@H]2O[C@H](C)C[C@H](N(C)C(C)=O)[C@H]2O)[C@](C)(OCC=Cc2cnc3ccccc3c2)C[C@@H](C)C(=O)[C@H](C)[C@H]2NC(=O)O[C@@]21C [Example 4, Compound of Formula (II); R is -CH2CH=CH-(3-quinolyl), R^P is H, W is absent, R^w is H, R^1 is acetyl, R^2 is CH3-] | > 100 | 1.56 | > 100 | > 100 | 100 | 3.1 | 0.39 | 25 | 12.5 | > 100 | > 100 | 6.2 | 6.2 | 6.2 | 6.2 | 6.2 | 6.2 | 0.25 | 128 | 0.25 | MIC [2]: > 128 µg/mL; MIC [18]: 0.125 µg/mL; MIC [19]: 0.39 µg/mL; MIC [20]: 0.2 µg/mL; MIC [22]: 0.39 µg/mL; MIC [23]: 1.56 µg/mL
3 | CC[C@H]1OC(=O)[C@H](C)C(=O)[C@H](C)[C@@H](O[C@@H]2O[C@H](C)C[C@H](N(C)Cc3cccnc3)[C@H]2O)[C@](C)(OCC=Cc2cnc3ccccc3c2)C[C@@H](C)C(=O)[C@H](C)[C@H]2NC(=O)O[C@@]21C [Example 14, Compound of Formula (II); R is -CH2CH=CH-(3-quinolyl), R^p is H, W is absent, R^w is H, R^1 is CH2-(3-pyridyl), R^2 is CH3] | > 100 | 0.05 | > 100 | > 100 | 0.78 | 0.39 | 0.05 | 0.39 | 0.2 | > 100 | > 100 | 0.39 | 0.39 | 0.39 | 0.39 | 0.39 | 0.39 | 0.25 | > 128 | 0.03 | MIC [18]: 0.03 µg/mL; MIC [19]: 0.2 µg/mL; MIC [20]: 0.05 µg/mL; MIC [21]: 50 µg/mL; MIC [22]: 0.05 µg/mL; MIC [23]: 0.39 µg/mL
